Measurements taken from the NIST ThermoML archive (doi:10.1021/je4007844).

Settings: Liquid; for viscosity: Concentric cylinders viscometry

CCCCCC[n+]1ccn(C)c1.O=S(=O)([N-]S(=O)(=O)C(F)(F)F)C(F)(F)F
101.33 kPa
Settings | viscosity [mPa·s]
293.15 K | 90.06
303.15 K | 56.25
313.15 K | 37.44
323.15 K | 26.25
333.15 K | 19.21
343.15 K | 14.55
353.15 K | 11.36
363.15 K | 9.091
373.15 K | 7.434

Settings | mass density [kg/m3]
293.15 K, 101.33 kPa, Vibrating tube method | 1376.3
303.15 K, 101.33 kPa, Vibrating tube method | 1367.1
312.6 K, 100 kPa, Bellows volumetry | 1358.5
312.6 K, 10000 kPa, Bellows volumetry | 1365.7
312.6 K, 20000 kPa, Bellows volumetry | 1373
312.6 K, 30000 kPa, Bellows volumetry | 1380.1
312.6 K, 40000 kPa, Bellows volumetry | 1386.7
312.6 K, 50000 kPa, Bellows volumetry | 1392.8
312.6 K, 60000 kPa, Bellows volumetry | 1399
312.6 K, 70000 kPa, Bellows volumetry | 1404.6
312.6 K, 80000 kPa, Bellows volumetry | 1410.2
312.6 K, 90000 kPa, Bellows volumetry | 1415.5
312.6 K, 100000 kPa, Bellows volumetry | 1420.7
312.6 K, 110000 kPa, Bellows volumetry | 1425.8
312.6 K, 120000 kPa, Bellows volumetry | 1430.8
312.6 K, 130000 kPa, Bellows volumetry | 1435.5
312.6 K, 140000 kPa, Bellows volumetry | 1440.1
312.6 K, 150000 kPa, Bellows volumetry | 1444.5
312.6 K, 160000 kPa, Bellows volumetry | 1448.9
312.6 K, 170000 kPa, Bellows volumetry | 1453
312.6 K, 180000 kPa, Bellows volumetry | 1457.6
312.6 K, 190000 kPa, Bellows volumetry | 1461.6
312.6 K, 200000 kPa, Bellows volumetry | 1465.9
313.15 K, 101.33 kPa, Vibrating tube method | 1358
323.15 K, 101.33 kPa, Vibrating tube method | 1348.9
332.4 K, 100 kPa, Bellows volumetry | 1340
332.4 K, 10000 kPa, Bellows volumetry | 1348.1
332.4 K, 20000 kPa, Bellows volumetry | 1355.9
332.4 K, 30000 kPa, Bellows volumetry | 1363.3
332.4 K, 40000 kPa, Bellows volumetry | 1370.4
332.4 K, 50000 kPa, Bellows volumetry | 1377
332.4 K, 60000 kPa, Bellows volumetry | 1383.2
332.4 K, 70000 kPa, Bellows volumetry | 1389.3
332.4 K, 80000 kPa, Bellows volumetry | 1395.1
332.4 K, 90000 kPa, Bellows volumetry | 1400.5
332.4 K, 100000 kPa, Bellows volumetry | 1406.3
332.4 K, 110000 kPa, Bellows volumetry | 1411.5
332.4 K, 120000 kPa, Bellows volumetry | 1416.5
332.4 K, 130000 kPa, Bellows volumetry | 1421.3
332.4 K, 140000 kPa, Bellows volumetry | 1426.1
332.4 K, 150000 kPa, Bellows volumetry | 1430.9
332.4 K, 160000 kPa, Bellows volumetry | 1435.4
332.4 K, 170000 kPa, Bellows volumetry | 1439.7
332.4 K, 180000 kPa, Bellows volumetry | 1444
332.4 K, 190000 kPa, Bellows volumetry | 1448.4
332.4 K, 200000 kPa, Bellows volumetry | 1452.6
333.15 K, 101.33 kPa, Vibrating tube method | 1339.9
343.15 K, 101.33 kPa, Vibrating tube method | 1331
352.3 K, 100 kPa, Bellows volumetry | 1322.2
352.3 K, 10000 kPa, Bellows volumetry | 1330.9
352.3 K, 20000 kPa, Bellows volumetry | 1339.3
352.3 K, 30000 kPa, Bellows volumetry | 1347.3
352.3 K, 40000 kPa, Bellows volumetry | 1354.5
352.3 K, 50000 kPa, Bellows volumetry | 1361.5
352.3 K, 60000 kPa, Bellows volumetry | 1368.2
352.3 K, 70000 kPa, Bellows volumetry | 1374.6
352.3 K, 80000 kPa, Bellows volumetry | 1380.6
352.3 K, 90000 kPa, Bellows volumetry | 1386.5
352.3 K, 100000 kPa, Bellows volumetry | 1392
352.3 K, 110000 kPa, Bellows volumetry | 1397.5
352.3 K, 120000 kPa, Bellows volumetry | 1402.7
352.3 K, 130000 kPa, Bellows volumetry | 1408
352.3 K, 140000 kPa, Bellows volumetry | 1412.8
352.3 K, 150000 kPa, Bellows volumetry | 1417.6
352.3 K, 160000 kPa, Bellows volumetry | 1422.1
352.3 K, 170000 kPa, Bellows volumetry | 1426.8
352.3 K, 180000 kPa, Bellows volumetry | 1431.4
352.3 K, 190000 kPa, Bellows volumetry | 1435.5
352.3 K, 200000 kPa, Bellows volumetry | 1439.9
353.15 K, 101.33 kPa, Vibrating tube method | 1322.2
363.15 K, 101.33 kPa, Vibrating tube method | 1313.3
372.5 K, 100 kPa, Bellows volumetry | 1304.4
372.5 K, 10000 kPa, Bellows volumetry | 1313.7
372.5 K, 20000 kPa, Bellows volumetry | 1322.6
372.5 K, 30000 kPa, Bellows volumetry | 1330.9
372.5 K, 40000 kPa, Bellows volumetry | 1338.6
372.5 K, 50000 kPa, Bellows volumetry | 1346
372.5 K, 60000 kPa, Bellows volumetry | 1353
372.5 K, 70000 kPa, Bellows volumetry | 1359.6
372.5 K, 80000 kPa, Bellows volumetry | 1366
372.5 K, 90000 kPa, Bellows volumetry | 1372.1
372.5 K, 100000 kPa, Bellows volumetry | 1378
372.5 K, 110000 kPa, Bellows volumetry | 1383.7
372.5 K, 120000 kPa, Bellows volumetry | 1389.1
372.5 K, 130000 kPa, Bellows volumetry | 1394.3
372.5 K, 140000 kPa, Bellows volumetry | 1399.4
372.5 K, 150000 kPa, Bellows volumetry | 1404.4
372.5 K, 160000 kPa, Bellows volumetry | 1409.3
372.5 K, 170000 kPa, Bellows volumetry | 1414
372.5 K, 180000 kPa, Bellows volumetry | 1418.5
372.5 K, 190000 kPa, Bellows volumetry | 1423.1
372.5 K, 200000 kPa, Bellows volumetry | 1427.4
373.15 K, 101.33 kPa, Vibrating tube method | 1304.7
392.7 K, 100 kPa, Bellows volumetry | 1286.8
392.7 K, 10000 kPa, Bellows volumetry | 1296.8
392.7 K, 20000 kPa, Bellows volumetry | 1306.3
392.7 K, 30000 kPa, Bellows volumetry | 1315.1
392.7 K, 40000 kPa, Bellows volumetry | 1323.4
392.7 K, 50000 kPa, Bellows volumetry | 1331.1
392.7 K, 60000 kPa, Bellows volumetry | 1338.5
392.7 K, 70000 kPa, Bellows volumetry | 1345.4
392.7 K, 80000 kPa, Bellows volumetry | 1352.1
392.7 K, 90000 kPa, Bellows volumetry | 1358.3
392.7 K, 100000 kPa, Bellows volumetry | 1364.5
392.7 K, 110000 kPa, Bellows volumetry | 1370.3
392.7 K, 120000 kPa, Bellows volumetry | 1376
392.7 K, 130000 kPa, Bellows volumetry | 1381.5
392.7 K, 140000 kPa, Bellows volumetry | 1386.8
392.7 K, 150000 kPa, Bellows volumetry | 1391.9
392.7 K, 160000 kPa, Bellows volumetry | 1397
392.7 K, 170000 kPa, Bellows volumetry | 1401.8
392.7 K, 180000 kPa, Bellows volumetry | 1406.5
392.7 K, 190000 kPa, Bellows volumetry | 1411.1
392.7 K, 200000 kPa, Bellows volumetry | 1415.7
412.7 K, 100 kPa, Bellows volumetry | 1269.8
412.7 K, 10000 kPa, Bellows volumetry | 1280.4
412.7 K, 20000 kPa, Bellows volumetry | 1290.4
412.7 K, 30000 kPa, Bellows volumetry | 1299.8
412.7 K, 40000 kPa, Bellows volumetry | 1308.4
412.7 K, 50000 kPa, Bellows volumetry | 1316.5
412.7 K, 60000 kPa, Bellows volumetry | 1324.3
412.7 K, 70000 kPa, Bellows volumetry | 1331.5
412.7 K, 80000 kPa, Bellows volumetry | 1338.5
412.7 K, 90000 kPa, Bellows volumetry | 1345
412.7 K, 100000 kPa, Bellows volumetry | 1351.3
412.7 K, 110000 kPa, Bellows volumetry | 1357.5
412.7 K, 120000 kPa, Bellows volumetry | 1363.2
412.7 K, 130000 kPa, Bellows volumetry | 1368.9
412.7 K, 140000 kPa, Bellows volumetry | 1374.3
412.7 K, 150000 kPa, Bellows volumetry | 1379.8
412.7 K, 160000 kPa, Bellows volumetry | 1384.9
412.7 K, 170000 kPa, Bellows volumetry | 1389.9
412.7 K, 180000 kPa, Bellows volumetry | 1394.7
412.7 K, 190000 kPa, Bellows volumetry | 1399.4
412.7 K, 200000 kPa, Bellows volumetry | 1404
432.6 K, 100 kPa, Bellows volumetry | 1252.4
432.6 K, 10000 kPa, Bellows volumetry | 1263.7
432.6 K, 20000 kPa, Bellows volumetry | 1274.3
432.6 K, 30000 kPa, Bellows volumetry | 1284.2
432.6 K, 40000 kPa, Bellows volumetry | 1293.3
432.6 K, 50000 kPa, Bellows volumetry | 1301.7
432.6 K, 60000 kPa, Bellows volumetry | 1309.7
432.6 K, 70000 kPa, Bellows volumetry | 1317.3
432.6 K, 80000 kPa, Bellows volumetry | 1324.5
432.6 K, 90000 kPa, Bellows volumetry | 1331.2
432.6 K, 100000 kPa, Bellows volumetry | 1337.8
432.6 K, 110000 kPa, Bellows volumetry | 1344.1
432.6 K, 120000 kPa, Bellows volumetry | 1350.3
432.6 K, 130000 kPa, Bellows volumetry | 1356.1
432.6 K, 140000 kPa, Bellows volumetry | 1361.9
432.6 K, 150000 kPa, Bellows volumetry | 1367.3
432.6 K, 160000 kPa, Bellows volumetry | 1372.4
432.6 K, 170000 kPa, Bellows volumetry | 1377.5
432.6 K, 180000 kPa, Bellows volumetry | 1382.5
432.6 K, 190000 kPa, Bellows volumetry | 1387.4
432.6 K, 200000 kPa, Bellows volumetry | 1392.2
452.3 K, 100 kPa, Bellows volumetry | 1235.6
452.3 K, 10000 kPa, Bellows volumetry | 1247.6
452.3 K, 20000 kPa, Bellows volumetry | 1258.8
452.3 K, 30000 kPa, Bellows volumetry | 1269.2
452.3 K, 40000 kPa, Bellows volumetry | 1278.8
452.3 K, 50000 kPa, Bellows volumetry | 1287.6
452.3 K, 60000 kPa, Bellows volumetry | 1295.9
452.3 K, 70000 kPa, Bellows volumetry | 1303.9
452.3 K, 80000 kPa, Bellows volumetry | 1311.3
452.3 K, 90000 kPa, Bellows volumetry | 1318.3
452.3 K, 100000 kPa, Bellows volumetry | 1325.1
452.3 K, 110000 kPa, Bellows volumetry | 1331.8
452.3 K, 120000 kPa, Bellows volumetry | 1338
452.3 K, 130000 kPa, Bellows volumetry | 1344.1
452.3 K, 140000 kPa, Bellows volumetry | 1349.9
452.3 K, 150000 kPa, Bellows volumetry | 1355.5
452.3 K, 160000 kPa, Bellows volumetry | 1360.8
452.3 K, 170000 kPa, Bellows volumetry | 1366.2
452.3 K, 180000 kPa, Bellows volumetry | 1371.3
452.3 K, 190000 kPa, Bellows volumetry | 1376.4
452.3 K, 200000 kPa, Bellows volumetry | 1381.2

CCCCCCn1cc[n+](C)c1.[Cl-] [1-hexyl-3-methylimidazolium chloride]
101.33 kPa, Vibrating tube method
Settings | mass density [kg/m3]
303.15 K | 1035.1
313.15 K | 1029.5
323.15 K | 1023.9
333.15 K | 1018.4
343.15 K | 1012.8
353.15 K | 1007.4
363.15 K | 1002.1
373.15 K | 997.1

101.33 kPa
Settings | viscosity [mPa·s]
323.15 K | 1806
333.15 K | 810.3
343.15 K | 404.3
353.15 K | 220.6
363.15 K | 129.7
373.15 K | 81.34
